Measured values as given in article PMC5708805, “Novel molecular imaging ligands targeting matrix metalloproteinases 2 and 9 for imaging of unstable atherosclerotic plaques” (PLoS ONE, 2017).

Key:
MMP1 = target: T1, MMP1 (Homo sapiens, UniProt P03956); assay: In vitro fluorometric MMP inhibition assay (SensoLyte 520 MMP-1); format: biochemical; settings: mean ± SD of three independent experiments in duplicate
T1 construct: purchased AnaSpec, San Jose, USA
T1 sequence (P03956 100-469): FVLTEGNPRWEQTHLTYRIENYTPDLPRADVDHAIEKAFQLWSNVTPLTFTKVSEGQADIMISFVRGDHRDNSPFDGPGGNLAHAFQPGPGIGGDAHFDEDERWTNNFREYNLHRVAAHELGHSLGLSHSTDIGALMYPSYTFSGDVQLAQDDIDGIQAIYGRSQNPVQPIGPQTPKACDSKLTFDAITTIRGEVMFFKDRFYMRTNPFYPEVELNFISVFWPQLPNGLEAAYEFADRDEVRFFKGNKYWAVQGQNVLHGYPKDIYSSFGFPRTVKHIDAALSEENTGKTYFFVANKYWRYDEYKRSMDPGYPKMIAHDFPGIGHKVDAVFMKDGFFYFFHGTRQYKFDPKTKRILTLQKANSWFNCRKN
Method: (§1) The inhibitory potency and selective binding of MMP-ligands was investigated by examining their capacity to block MMP1, MMP2 and MMP9 activity, using in vitro fluorometric assays (SensoLyte^TM 520 MMP-1, SensoLyte^TM 520 MMP-2, SensoLyte^TM 520 MMP-9; AnaSpec, San Jose, USA). Assay buffer was warmed to 37°C and used to dilute the reference inhibitor N-isobutyl-N-(4-methoxyphenylsulfonyl)glycyl hydoxamic acid (NNGH 1:100), calibration standard (1:50), substrate and enzyme (1:60). Components were loaded into a 96-well plate. MMP ligands 10a-d were also aliquoted to the respective 96-well plate at varying concentrations (10pM, 100pM, 1nM, 10nM, 100nM, 1μM, 10 μM and 100 μM), followed by incubation at 37°C for 30 minutes. Reactions were initiated by addition of the substrate to the respective wells, after which fluorescence generated was measured using a microplate reader (Synergy HT Multi-detection Microplate Reader, BioTek, […]) continuously for 30 minutes at 60 second intervals. Data analysis was conducted using Sigma Plot and Microsoft Excel.

MMP2 = target: T2, MMP2 (Homo sapiens, UniProt P08253); assay: In vitro fluorometric MMP inhibition assay (SensoLyte 520 MMP-2); format: biochemical; settings: for IC50: mean ± SD of three independent experiments in duplicate; for Selectivity MMP1/MMP2: ratio of IC50 values, MMP1 IC50 divided by MMP2 IC50
T2 construct: purchased AnaSpec, San Jose, USA
T2 sequence (P08253 110-660): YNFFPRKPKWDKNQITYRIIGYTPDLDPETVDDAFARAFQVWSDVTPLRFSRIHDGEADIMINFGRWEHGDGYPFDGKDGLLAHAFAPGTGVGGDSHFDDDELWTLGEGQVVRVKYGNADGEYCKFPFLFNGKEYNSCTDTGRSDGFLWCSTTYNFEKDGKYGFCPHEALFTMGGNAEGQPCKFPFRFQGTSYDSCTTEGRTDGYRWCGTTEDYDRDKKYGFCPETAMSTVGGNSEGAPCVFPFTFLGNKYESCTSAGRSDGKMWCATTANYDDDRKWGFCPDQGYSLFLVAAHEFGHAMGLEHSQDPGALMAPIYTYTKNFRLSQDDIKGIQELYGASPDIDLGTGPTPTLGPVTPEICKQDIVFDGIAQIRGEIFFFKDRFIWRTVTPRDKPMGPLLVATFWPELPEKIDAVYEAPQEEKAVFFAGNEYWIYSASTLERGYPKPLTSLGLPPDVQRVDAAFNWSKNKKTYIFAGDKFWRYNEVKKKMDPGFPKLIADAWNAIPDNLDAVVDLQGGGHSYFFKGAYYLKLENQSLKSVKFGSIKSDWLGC
Method: as §1

MMP9 = target: T3, MMP9 (Homo sapiens, UniProt P14780); assay: In vitro fluorometric MMP inhibition assay (SensoLyte 520 MMP-9); format: biochemical; settings: for IC50: mean ± SD of three independent experiments in duplicate; for Selectivity MMP1/MMP9: ratio of IC50 values, MMP1 IC50 divided by MMP9 IC50
T3 construct: purchased AnaSpec, San Jose, USA
T3 sequence (P14780 94-707, species assumed): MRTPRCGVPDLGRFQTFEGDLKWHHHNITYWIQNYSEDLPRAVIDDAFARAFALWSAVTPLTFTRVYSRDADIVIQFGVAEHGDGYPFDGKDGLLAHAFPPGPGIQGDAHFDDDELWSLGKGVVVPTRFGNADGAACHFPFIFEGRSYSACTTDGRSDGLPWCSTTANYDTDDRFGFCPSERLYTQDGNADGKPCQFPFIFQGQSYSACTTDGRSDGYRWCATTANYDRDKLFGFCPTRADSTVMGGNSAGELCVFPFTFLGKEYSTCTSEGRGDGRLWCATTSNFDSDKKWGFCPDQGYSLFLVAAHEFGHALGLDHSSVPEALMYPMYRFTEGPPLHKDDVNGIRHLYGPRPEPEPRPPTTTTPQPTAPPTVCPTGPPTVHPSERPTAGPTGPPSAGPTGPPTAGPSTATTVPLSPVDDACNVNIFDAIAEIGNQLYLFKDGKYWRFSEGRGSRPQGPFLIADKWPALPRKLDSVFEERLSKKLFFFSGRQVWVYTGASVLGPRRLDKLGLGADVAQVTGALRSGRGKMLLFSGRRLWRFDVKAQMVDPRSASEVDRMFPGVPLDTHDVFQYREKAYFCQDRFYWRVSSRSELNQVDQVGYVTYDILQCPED
Method: as §1

[1] = In vivo biodistribution after intravenous injection in healthy mice; settings: healthy C57BL/6 mice
Method: All experiments were approved by the institutional committee for animal experiments at the Academic Medical Center. C57BL/6 female mice (14–16 week) were purchased from Harlan and housed in the animal care facility at the Academic Medical Center. Animals were anesthetized using 126 mg ketamine, 100 μg dexdomitor, 500 μg atropine, 7.5 mL NaCl 0.9% of which 0.015 mL/g body weight was administered by intraperitoneal injection. In order to investigate the in vivo biodistribution of MMP ligand [^123I]10c, 4 MBq was administered intravenously in the tail vein and allowed to circulate for either 5, 15, 30, 60 minutes or 2, 3, 4, 6 and 24 hours (n = 3–4 animals for each time point). At the end of each circulation time, animals were sacrificed by bleeding through phosphate buffered saline solution (PBS) perfusion. After the animals were sacrificed, whole blood was collected by cardiac puncture, and selected organs were excised (heart, lungs, liver and kidneys). The organs were weighed and radioactivity was measured using a scintillation counter (TRT-CARB 2000CA, Perkin Elmer 1987). The measured radioactivity was expressed as the percentage of the injected dose per gram of tissue per gram of body weight (% ID/g/g).
The biodistribution of [^123I]10c was investigated following intravenous infusion of 4 MBq in healthy C57BL/6 mice. Following the bolus injection, the compound was allowed to circulate for 5, 15, 30, 60 minutes, 2, 3, 4, 6 and 24 hours. […] In the blood, stabilization of the compound was reached after at least 1 hour of circulation.
Fig 5 Biodistribution of [^123I]10c following intravenous infusion in healthy mice (n = 3–4 /group). Injected dose (ID) of radioactivity was measured in fat (A), muscle (B), liver (C), kidney (D), spleen (E), blood (F), heart (G) and lung (H) at varying time-points after injection. Values shown are mean ± SEM.

[2] = system: atherosclerotic lesions containing MMP2 and MMP9; assay: In vivo binding to atherosclerotic plaques (ex vivo storage phosphor imaging of aortic arch, MMP2/9 immunohistochemistry); set-up: species or system ApoE-/- mice; settings: 40 MBq i.v.
Method: To investigate selective binding of [^123I]10c to MMP2/9 found in atherosclerotic lesions, we examined the distribution of the [^123I]10c in 8–10 week old female ApoE-/- mice (n = 5, Charles River) that were fed a high fat Western diet (15% fat, 0.25% cholesterol; Arie Blok Diervoeding, Netherlands) for 4 weeks. These animals subsequently developed atherosclerotic plaques. 40 MBq of [^123I]10c were administered by intravenous injection in the tail vein and allowed to circulate for […]. Animals were euthanized by bleeding via PBS infusion. The aortic arch was excised and 10 μm serial sections were made. Aortic arch sections were placed on a phosphor imaging plate (Fuji) and the amount of radioactivity was measured using a storage phosphor imaging apparatus (Typhoon Trio; GE Healthcare Life Sciences). Sections were then stained with hematoxylin/eosin staining, or used for MMP2 and MMP9 detection. Prior to incubation with monoclonal goat-anti-mouse MMP2 (R&D Systems) and rabbit-anti-mouse MMP9 (Abcam), the sections were heated to improve antigen retrieval. Rabbit-anti-goat secondary antibodies (DAKO) were utilized on the MMP2 sections. Thereafter, all sections were probed with the PowerVision anti-rabbit polymer, conjugated to horseradish peroxidase (Immunologic), to reveal positive primary antibody binding by means of chromogen conversion of 3,3’-diaminobenzidine (DAB), followed by nuclear counterstaining with hematoxylin. Histological sections were imaged with a bright-field microscope. […]
To validate the efficacy of [^123I]10c as an appropriate tracer for detection of atherosclerotic plaques, we examined the in vivo uptake of this ligand in ApoE-/- mice that were fed a high-fat diet. […] 40 MBq of [^123I]10c was administered intravenously and allowed to circulate for 3 hours, after which the animals were euthanized and the aortic arch was excised for measuring radioactivity by storage phosphor imaging.
Fig 6 Binding of [^123I]10c to atherosclerotic lesions containing MMP2 and MMP9. […] The region with highest apparent radioactivity has been outlined. […]

SMILES | IC50 (MMP1) [nM] | IC50 (MMP2) [nM] | Selectivity MMP1/MMP2 (MMP2) | IC50 (MMP9) [nM] | Selectivity MMP1/MMP9 (MMP9) | circulation time until stabilization of the compound in blood ([1]; 4 MBq i.v. bolus) | tissues with highest radioactivity (biodistribution) ([1]; 4 MBq i.v., 5 min to 24 h) | accumulation in fat (biodistribution) ([1]; 4 MBq i.v., 5 min to 24 h, relative to other tissues) | tracer uptake in diseased regions of the vessel wall ([2]; ApoE-/- mice on high-fat diet, storage phosphor imaging) | uptake in atherosclerotic lesions of the aortic arch ([2]; ApoE-/- mice on high-fat diet, storage phosphor imaging of excised aortic arch) | relation of tracer uptake to MMP2 and MMP9 immunohistochemical staining in lesions ([2]; ApoE-/- mice, consecutive aortic arch sections)
O=C(O)CN(CC(=O)NO)S(=O)(=O)c1ccccc1 [Compound 4a, 2-(N-(2(hydroxyamino)-2-oxoethyl)phenylsulfonamido) acetic acid] | 51 ± 0.1 | 39 ± 0.16 | 1.31 | 14 ± 1.05 | 3.64 |  |  |  |  |  | 
O=C(O)CN(CC(=O)NO)S(=O)(=O)c1ccc(Oc2ccc(Br)cc2)cc1 [Compound 10d, ([4-(4-Bromo-phenoxy)-benzenesulphonyl]-hydroxycarbamoylmethyl-amino) acetic acid] | 1320 ± 790 | 7.64 ± 1.43 | 173 | 1.61 ± 1.41 | 820 |  |  |  |  |  | 
O=C(O)CN(CC(=O)NO)S(=O)(=O)c1ccc(I)cc1 [Compound 4c, 2-(4-Iodo-N-(2-hydroxyamino)-2-oxoethyl) phenylsufonamido acetic acid] | 59 ± 0.17 | 27 ± 1 | 2.19 | 11 ± 1.14 | 5.36 |  |  |  |  |  | 
O=C(O)CN(CC(=O)NO)S(=O)(=O)c1ccc(Oc2ccc(I)cc2)cc1 [Compound 10c, ([4-(4-Iodo-phenoxy)-benzenesulphonyl]-hydroxycarbamoylmethyl-amino) acetic acid] | 910 ± 560 | 0.87 ± 0.4 | 1.05 x 10^3 | 1.95 ± 1.1 | 467 |  |  |  |  |  | 
O=C(O)CN(CC(=O)NO)S(=O)(=O)c1ccc(Cl)cc1 [Compound 4e, 2-(4-chloro-N-(2-hydroxyamino)-2-oxoethyl)phenylsufonamido acetic acid] | 61 ± 0.11 | 41 ± 0.19 | 1.49 | 18 ± 0.16 | 3.39 |  |  |  |  |  | 
O=C(O)CN(CC(=O)NO)S(=O)(=O)c1ccc(F)cc1 [Compound 4b, 2-(4-fluoro-N-(2-hydroxyamino)-2oxoethyl)phenylsufonamido acetic acid] | 75 ± 0.15 | 12 ± 0.17 | 6.25 | 21 ± 0.19 | 3.57 |  |  |  |  |  | 
O=C(O)CN(CC(=O)NO)S(=O)(=O)c1ccc(Oc2ccccc2)cc1 [Compound 10a, ([4-Phenoxy-benzenesulphonyl]-hydroxycarbamoylmethyl-amino) acetic acid] |  |  | 884 |  | 387 |  |  |  |  |  | 
O=C(O)CN(CC(=O)NO)S(=O)(=O)c1ccc(Oc2ccc([123I])cc2)cc1 [[^123I]10c, ([4-(4-[^123I]Iodophenoxy)benzenesulphonyl]hydroxycarbamoylmethylamino) acetic acid] |  |  |  |  |  | at least 1 hour | highest in the liver and blood | lowest | relatively high | detectable | co-localizing
O=C(O)CN(CC(=O)NO)S(=O)(=O)c1ccc(Oc2ccc(F)cc2)cc1 [Compound 10b] |  |  | 3.60 x 10^4 |  | 1.74 x 10^4 |  |  |  |  |  | 
O=C(O)CN(CC(=O)NO)S(=O)(=O)c1ccc(Br)cc1 [Compound 4d, 2-(4-bromo-N-(2-hydroxyamino)-2-oxoethyl) phenylsufonamido acetic acid] | 63 ± 0.13 | 19 ± 0.19 | 3.32 | 23 ± 0.21 | 2.74 |  |  |  |  |  | 
